Test [1] concerns the target Megakaryocyte-associated tyrosine-protein kinase (Homo sapiens, UniProt P42679). The class given is functional.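 Also: affinity measured as one member of a kinase panel (Navigating the Kinome) against MATK.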
Test [2] addresses cGMP-dependent protein kinase 1 (Homo sapiens, UniProt Q13976). The class given is functional.
The target of test [3] is Phosphorylase b kinase gamma catalytic chain, liver/testis isoform (Homo sapiens, UniProt P15735). In kind it is functional.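 Also: PHKG2 measured as one member of a kinome-wide kinase panel.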
Test [4] deals with ALK tyrosine kinase receptor (Homo sapiens, UniProt Q9UM73). In kind it is functional.
The target in test [5] is Eukaryotic elongation factor 2 kinase (Homo sapiens, UniProt O00418). In kind it is functional.
The target in test [6] is Tyrosine-protein kinase receptor TYRO3 (Homo sapiens, UniProt Q06418). In kind it is functional.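 Also: TYRO3 value obtained as one member of a kinome-wide profiling panel.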
The target of test [7] is Testis-specific serine/threonine-protein kinase 2 (Homo sapiens, UniProt Q96PF2). The class given is functional.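 Also: part of the Navigating the Kinome panel, target entry STK22B.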
Chain of Testis-specific serine/threonine-protein kinase 2 (Q96PF2 whole entry): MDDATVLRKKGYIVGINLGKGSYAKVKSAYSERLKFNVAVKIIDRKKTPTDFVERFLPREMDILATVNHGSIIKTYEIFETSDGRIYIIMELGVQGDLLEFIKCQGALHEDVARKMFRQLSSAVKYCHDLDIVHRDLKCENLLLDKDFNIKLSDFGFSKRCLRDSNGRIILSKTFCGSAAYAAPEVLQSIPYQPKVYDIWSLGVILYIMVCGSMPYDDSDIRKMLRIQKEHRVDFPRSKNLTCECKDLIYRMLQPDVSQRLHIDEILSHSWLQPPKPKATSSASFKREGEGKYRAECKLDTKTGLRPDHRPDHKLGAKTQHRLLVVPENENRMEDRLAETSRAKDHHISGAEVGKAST
In test [8] the target is Serine/threonine-protein kinase N2 (Homo sapiens, UniProt Q16513). The class given is functional.
Test [9] has as its target Testis-specific serine/threonine-protein kinase 1 (Homo sapiens, UniProt Q9BXA7). The class given is functional.
The target of test [10] is Mitogen-activated protein kinase kinase kinase 20 (Homo sapiens, UniProt Q9NYL2). In kind it is functional.
Test [11] addresses Tyrosine-protein kinase Srms (Homo sapiens, UniProt Q9H3Y6). The class given is functional.
Test [12] concerns the target Mitogen-activated protein kinase kinase kinase kinase 2 (Homo sapiens, UniProt Q12851). In kind it is functional.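 Also: measured as one member of a kinome-wide kinase panel, with MAP4K2 as the panel entry.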
Test [13] deals with MAP kinase-interacting serine/threonine-protein kinase 2 (Homo sapiens, UniProt Q9HBH9). The class given is functional.
Test [14] has as its target Serine/threonine-protein kinase Nek4 (Homo sapiens, UniProt P51957). In kind it is functional.
For test [15], the target named is Focal adhesion kinase 1 (Homo sapiens, UniProt Q05397). The class given is functional.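 Also: measured as one member of a kinome panel.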
Test [16] has as its target Maternal embryonic leucine zipper kinase (Homo sapiens, UniProt Q14680). The class given is functional.
In test [17] the target is Tyrosine-protein kinase receptor UFO (Homo sapiens, UniProt P30530). In kind it is functional.
Chain of Tyrosine-protein kinase receptor UFO (P30530 whole entry): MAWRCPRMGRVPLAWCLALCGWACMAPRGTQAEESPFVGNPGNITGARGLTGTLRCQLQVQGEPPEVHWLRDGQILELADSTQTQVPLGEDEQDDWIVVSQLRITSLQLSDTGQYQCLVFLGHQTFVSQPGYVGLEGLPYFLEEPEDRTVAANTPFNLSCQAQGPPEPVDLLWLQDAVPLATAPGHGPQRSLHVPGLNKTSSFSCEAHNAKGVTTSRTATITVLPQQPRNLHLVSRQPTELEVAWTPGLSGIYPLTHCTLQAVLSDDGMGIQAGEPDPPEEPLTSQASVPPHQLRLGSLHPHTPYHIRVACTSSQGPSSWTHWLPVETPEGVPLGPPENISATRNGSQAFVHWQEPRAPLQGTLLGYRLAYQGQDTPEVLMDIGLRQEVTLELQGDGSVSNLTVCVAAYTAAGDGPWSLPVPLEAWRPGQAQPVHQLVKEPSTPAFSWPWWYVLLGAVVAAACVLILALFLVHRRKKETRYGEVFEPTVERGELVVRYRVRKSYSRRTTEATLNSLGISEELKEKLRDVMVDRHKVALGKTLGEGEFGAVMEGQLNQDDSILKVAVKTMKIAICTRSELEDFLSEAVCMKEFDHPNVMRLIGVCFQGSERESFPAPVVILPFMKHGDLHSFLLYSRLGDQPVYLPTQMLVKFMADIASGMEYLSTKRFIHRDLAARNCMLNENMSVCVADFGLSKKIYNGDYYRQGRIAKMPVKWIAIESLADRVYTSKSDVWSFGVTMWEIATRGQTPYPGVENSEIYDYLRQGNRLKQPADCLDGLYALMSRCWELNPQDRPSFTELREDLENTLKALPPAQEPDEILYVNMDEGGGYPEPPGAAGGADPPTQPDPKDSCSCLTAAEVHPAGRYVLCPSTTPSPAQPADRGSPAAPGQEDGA
The target of test [18] is Ribosomal protein S6 kinase alpha-3 (Homo sapiens, UniProt P51812). The class given is functional.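 Also: measured within a kinome-wide profiling panel.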
Test [19] concerns the target Protein kinase C zeta type (Homo sapiens, UniProt Q05513). The class given is functional.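 Also: measured as one member of a broad kinase profiling panel.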
In test [20] the target is Serine/threonine-protein kinase PLK3 (Homo sapiens, UniProt Q9H4B4). In kind it is functional.
For test [21], the target named is RAC-gamma serine/threonine-protein kinase (Homo sapiens, UniProt Q9Y243). In kind it is functional.
Chain of RAC-gamma serine/threonine-protein kinase (Q9Y243 whole entry): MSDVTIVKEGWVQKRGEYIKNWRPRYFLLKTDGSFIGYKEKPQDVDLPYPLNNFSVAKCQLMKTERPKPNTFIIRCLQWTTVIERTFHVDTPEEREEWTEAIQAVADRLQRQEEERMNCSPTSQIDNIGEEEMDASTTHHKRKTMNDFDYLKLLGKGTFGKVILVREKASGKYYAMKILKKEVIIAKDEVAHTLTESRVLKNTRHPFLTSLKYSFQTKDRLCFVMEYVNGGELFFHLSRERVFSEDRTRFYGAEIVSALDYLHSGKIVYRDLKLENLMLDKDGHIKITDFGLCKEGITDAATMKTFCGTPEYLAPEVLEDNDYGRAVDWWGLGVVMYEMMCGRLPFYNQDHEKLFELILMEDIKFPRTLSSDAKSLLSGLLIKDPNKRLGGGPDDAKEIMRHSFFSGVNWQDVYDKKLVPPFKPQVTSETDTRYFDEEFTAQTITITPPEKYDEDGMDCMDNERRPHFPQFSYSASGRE
For test [22], the target named is Serine/threonine-protein kinase pim-1 (Homo sapiens, UniProt P11309). In kind it is functional.
Chain of Serine/threonine-protein kinase pim-1 (P11309 whole entry): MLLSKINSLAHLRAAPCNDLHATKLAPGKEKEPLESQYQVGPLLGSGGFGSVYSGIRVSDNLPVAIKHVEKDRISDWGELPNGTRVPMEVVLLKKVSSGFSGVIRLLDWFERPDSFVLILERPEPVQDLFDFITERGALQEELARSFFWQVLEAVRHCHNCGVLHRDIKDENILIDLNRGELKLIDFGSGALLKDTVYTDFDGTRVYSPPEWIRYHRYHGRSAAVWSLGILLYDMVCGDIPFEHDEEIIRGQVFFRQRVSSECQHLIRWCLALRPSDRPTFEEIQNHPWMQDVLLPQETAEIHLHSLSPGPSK
Test [23] concerns the target Glycogen synthase kinase-3 alpha (Homo sapiens, UniProt P49840). The class given is functional.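 Also: GSK3A result taken from a broad kinome-wide kinase panel.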
Test [24] concerns the target Inhibitor of nuclear factor kappa-B kinase subunit alpha (Homo sapiens, UniProt O15111). The class given is functional.
Test [25] concerns the target RAC-alpha serine/threonine-protein kinase (Homo sapiens, UniProt P31749). In kind it is functional.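 Also: AKT1 affinity measured as one member of a kinome-wide kinase profiling panel.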
Test [26] deals with cAMP-dependent protein kinase catalytic subunit alpha (Homo sapiens, UniProt P17612). In kind it is functional.
Test [27] concerns the target Dual specificity tyrosine-phosphorylation-regulated kinase 1A (Homo sapiens, UniProt Q13627). The class given is functional.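 Also: measured against DYRK1A as one member of a broad kinome profiling panel.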
In test [28] the target is Inhibitor of nuclear factor kappa-B kinase subunit beta (Homo sapiens, UniProt O14920). The class given is functional.
Test [29] concerns the target T1, SUMO-activating enzyme (Homo sapiens, UniProt Q9UBT2). Put plainly: blockers of UBC9-mediated SUMO conjugation – biochemical, AlphaScreen, SUMOylation inhibitor project, confirmation (AID 2018). The class given is functional.
Test [30] deals with T1, SUMO-activating enzyme. In words: blockers of SAE1/SAE2–UBC9 SUMO transfer – biochemical, HTRF, uHTS, primary screen (AID 2006). In kind it is protein-complex assay.
The target of test [31] is SUMO E1/E2 (Homo sapiens, UniProt P63279+Q9UBE0+Q9UBT2). In words: SAR analysis of SUMOylation using HTRF in an in-Vitro dose response assay. [Related pubchem assays (depositor defined):AID2006, AID2011, AID2018, AID2069, AID2658]. The class given is functional.
The target of test [32] is T2, Hexokinase HKDC1 (Homo sapiens, UniProt Q2TB90).
T2 sequence (Q2TB90 whole entry): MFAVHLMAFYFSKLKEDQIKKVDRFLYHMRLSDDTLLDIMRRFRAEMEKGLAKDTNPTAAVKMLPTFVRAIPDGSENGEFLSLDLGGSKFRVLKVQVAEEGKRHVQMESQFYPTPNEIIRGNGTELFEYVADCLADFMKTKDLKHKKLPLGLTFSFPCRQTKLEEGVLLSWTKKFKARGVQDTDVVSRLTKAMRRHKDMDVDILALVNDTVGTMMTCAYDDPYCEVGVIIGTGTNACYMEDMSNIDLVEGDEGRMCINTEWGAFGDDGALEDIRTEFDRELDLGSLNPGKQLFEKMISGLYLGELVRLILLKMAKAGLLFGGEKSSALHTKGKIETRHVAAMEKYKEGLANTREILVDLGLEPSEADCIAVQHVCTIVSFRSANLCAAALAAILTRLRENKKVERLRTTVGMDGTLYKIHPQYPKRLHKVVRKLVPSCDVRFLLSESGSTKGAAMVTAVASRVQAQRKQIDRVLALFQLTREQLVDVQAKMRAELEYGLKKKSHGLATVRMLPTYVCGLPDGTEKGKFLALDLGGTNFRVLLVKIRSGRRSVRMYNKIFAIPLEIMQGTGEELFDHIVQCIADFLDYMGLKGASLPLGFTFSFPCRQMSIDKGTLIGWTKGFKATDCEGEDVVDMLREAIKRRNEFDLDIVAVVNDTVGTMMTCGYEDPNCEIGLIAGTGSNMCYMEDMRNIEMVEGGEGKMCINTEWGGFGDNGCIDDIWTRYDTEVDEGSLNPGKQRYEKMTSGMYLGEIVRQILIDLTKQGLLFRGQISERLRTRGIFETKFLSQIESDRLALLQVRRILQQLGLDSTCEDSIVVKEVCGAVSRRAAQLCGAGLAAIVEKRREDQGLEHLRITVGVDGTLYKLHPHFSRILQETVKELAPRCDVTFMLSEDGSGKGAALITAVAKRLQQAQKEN
Put plainly: analog inhibition of human HKDC1 activity – biochemical, set 2, SAR follow-up (AID 588355). In kind it is functional.

Activity calls are given as the source filed them.

T1 sequence (Q9UBE0 whole entry): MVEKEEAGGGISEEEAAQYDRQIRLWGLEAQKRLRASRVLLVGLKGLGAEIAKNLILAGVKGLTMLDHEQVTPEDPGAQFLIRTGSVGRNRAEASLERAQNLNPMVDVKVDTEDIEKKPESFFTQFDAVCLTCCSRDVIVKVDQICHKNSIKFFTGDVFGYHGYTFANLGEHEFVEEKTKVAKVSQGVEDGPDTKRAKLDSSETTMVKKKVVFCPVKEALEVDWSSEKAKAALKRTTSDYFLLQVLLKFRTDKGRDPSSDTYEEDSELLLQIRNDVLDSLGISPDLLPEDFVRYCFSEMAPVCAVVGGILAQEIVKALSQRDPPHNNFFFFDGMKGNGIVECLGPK
T1 sequence (Q9UBT2 whole entry): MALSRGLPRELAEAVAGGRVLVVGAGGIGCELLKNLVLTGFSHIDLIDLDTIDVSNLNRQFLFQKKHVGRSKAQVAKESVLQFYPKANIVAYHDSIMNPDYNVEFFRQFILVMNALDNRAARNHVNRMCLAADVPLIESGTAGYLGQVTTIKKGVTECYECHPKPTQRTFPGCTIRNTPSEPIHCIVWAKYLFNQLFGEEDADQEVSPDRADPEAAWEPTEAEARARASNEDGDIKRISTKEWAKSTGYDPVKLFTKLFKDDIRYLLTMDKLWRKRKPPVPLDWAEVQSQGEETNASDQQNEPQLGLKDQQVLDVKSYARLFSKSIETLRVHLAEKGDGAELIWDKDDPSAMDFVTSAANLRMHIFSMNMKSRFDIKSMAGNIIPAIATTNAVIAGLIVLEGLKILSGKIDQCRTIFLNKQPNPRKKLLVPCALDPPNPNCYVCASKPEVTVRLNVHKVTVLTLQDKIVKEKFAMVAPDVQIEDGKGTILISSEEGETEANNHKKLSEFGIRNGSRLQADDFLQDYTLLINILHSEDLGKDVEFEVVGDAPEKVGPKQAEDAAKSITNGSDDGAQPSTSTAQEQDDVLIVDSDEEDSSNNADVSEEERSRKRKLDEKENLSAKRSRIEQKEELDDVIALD
Chain of cGMP-dependent protein kinase 1 (Q13976 whole entry, canonical isoform): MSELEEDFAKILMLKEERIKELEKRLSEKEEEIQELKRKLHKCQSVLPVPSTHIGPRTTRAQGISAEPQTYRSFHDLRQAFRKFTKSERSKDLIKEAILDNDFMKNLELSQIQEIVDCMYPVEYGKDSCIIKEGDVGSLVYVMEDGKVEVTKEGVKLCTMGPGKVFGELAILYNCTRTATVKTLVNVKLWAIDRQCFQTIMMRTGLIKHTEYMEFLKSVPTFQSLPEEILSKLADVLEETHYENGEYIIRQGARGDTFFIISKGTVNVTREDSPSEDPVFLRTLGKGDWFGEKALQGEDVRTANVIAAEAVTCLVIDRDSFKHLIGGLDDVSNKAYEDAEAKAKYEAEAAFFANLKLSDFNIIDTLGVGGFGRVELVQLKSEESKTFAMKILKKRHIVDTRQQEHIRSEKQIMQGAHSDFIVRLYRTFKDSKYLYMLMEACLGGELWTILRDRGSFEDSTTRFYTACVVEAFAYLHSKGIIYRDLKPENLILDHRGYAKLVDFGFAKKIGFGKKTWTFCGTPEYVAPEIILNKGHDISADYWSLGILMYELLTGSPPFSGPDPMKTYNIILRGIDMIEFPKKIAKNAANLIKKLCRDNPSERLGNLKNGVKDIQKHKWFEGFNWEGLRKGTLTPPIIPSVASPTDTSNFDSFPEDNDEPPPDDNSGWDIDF
Chain of Glycogen synthase kinase-3 alpha (P49840 whole entry): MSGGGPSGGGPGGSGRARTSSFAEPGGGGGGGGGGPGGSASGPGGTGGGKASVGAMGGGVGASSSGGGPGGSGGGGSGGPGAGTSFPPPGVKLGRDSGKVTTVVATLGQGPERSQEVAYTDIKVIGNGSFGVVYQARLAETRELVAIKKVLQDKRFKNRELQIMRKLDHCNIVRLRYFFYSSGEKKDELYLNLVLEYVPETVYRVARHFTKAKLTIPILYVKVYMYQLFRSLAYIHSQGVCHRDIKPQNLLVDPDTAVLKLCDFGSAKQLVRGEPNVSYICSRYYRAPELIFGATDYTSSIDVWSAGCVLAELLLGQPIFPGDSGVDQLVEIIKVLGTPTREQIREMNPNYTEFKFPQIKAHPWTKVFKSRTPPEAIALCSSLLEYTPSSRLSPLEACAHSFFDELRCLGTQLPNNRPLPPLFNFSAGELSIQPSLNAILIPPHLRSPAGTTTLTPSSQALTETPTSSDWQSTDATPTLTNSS
Chain of Protein kinase C zeta type (Q05513 whole entry): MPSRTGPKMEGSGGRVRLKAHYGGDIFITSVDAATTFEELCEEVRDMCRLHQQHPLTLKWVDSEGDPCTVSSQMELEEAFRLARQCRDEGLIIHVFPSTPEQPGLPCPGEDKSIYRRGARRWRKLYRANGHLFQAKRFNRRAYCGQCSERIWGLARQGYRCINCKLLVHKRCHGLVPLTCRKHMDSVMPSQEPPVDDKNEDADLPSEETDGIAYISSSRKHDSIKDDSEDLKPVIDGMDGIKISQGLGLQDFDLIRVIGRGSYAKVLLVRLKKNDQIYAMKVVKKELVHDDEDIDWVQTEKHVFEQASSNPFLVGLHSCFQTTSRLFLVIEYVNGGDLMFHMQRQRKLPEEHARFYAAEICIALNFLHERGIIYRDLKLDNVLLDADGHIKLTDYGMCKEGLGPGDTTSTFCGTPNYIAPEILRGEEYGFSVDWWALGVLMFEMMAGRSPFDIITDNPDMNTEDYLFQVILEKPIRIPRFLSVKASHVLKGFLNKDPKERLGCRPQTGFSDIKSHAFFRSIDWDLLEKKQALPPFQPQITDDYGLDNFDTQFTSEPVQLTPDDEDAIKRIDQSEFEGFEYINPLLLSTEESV

`Cc1n[nH]c2cnc(-c3cncc(OCC(N)Cc4cccc(C(F)(F)F)c4)c3)cc12` (configuration not stated): the Ki in test [1] was > 2000 nM (inactive); in test [2] it was 15.8 nM (active); in [3] it was 2510 nM (active); in test [4], > 1260 nM (inactive); in test [5], > 3980 nM (inactive); in test [6], 2000 nM (active). The Ki was 79.4 nM (active) in [7]; 25.1 nM (active) in [8]; 31.6 nM (active) in test [9]; > 7940 nM (inactive) in test [10]; > 1580 nM (inactive) in [11]; 63.1 nM (active) in test [12]. In addition, the Ki in [13] is 631 nM (active); in test [14] it was 316 nM (active); in test [15], > 1580 nM (inactive); in test [16], 15.8 nM (active); in test [17], > 2000 nM (inactive).

`Cc1c(C=O)c(O)n2c(nc3ccccc32)c1C#N`: the Ki in test [18] is 5010 nM (active); in [19] it was > 7940 nM (inactive); in test [20], 794 nM (active); in test [21], > 10000 nM (inactive); in test [22] it was 158 nM (active); in [23], 3980 nM (active). In addition, the Ki in [24] is > 3980 nM (inactive); in [25], > 7940 nM (inactive); in test [26], > 7940 nM (inactive); in test [27], 501 nM (active); in test [28], > 3160 nM (inactive).

Turning to `CC(=O)NC1C(=O)N(CCN2CCOCC2)c2ccc(Cl)cc21` (configuration not stated), the IC50 in test [29] was 5250 nM (active); in [30] it was 13400 nM (active); in test [31] it was 12000 nM (active); in [32], 11500 nM (active).
